ChEMBL document CHEMBL1909046, “DrugMatrix in vitro pharmacology data”
pIC50, pKi: −log10 of the molar value.

Key:
[1] = target: T1, Alpha-2C adrenergic receptor (Homo sapiens, UniProt P18825); test: DRUGMATRIX: Adrenergic Alpha-2C radioligand binding (ligand: [3H] MK-912); format: cell membranes, Sf9, Membrane; conditions: for IC50 / Ki: sf9
T1 sequence (P18825 whole entry): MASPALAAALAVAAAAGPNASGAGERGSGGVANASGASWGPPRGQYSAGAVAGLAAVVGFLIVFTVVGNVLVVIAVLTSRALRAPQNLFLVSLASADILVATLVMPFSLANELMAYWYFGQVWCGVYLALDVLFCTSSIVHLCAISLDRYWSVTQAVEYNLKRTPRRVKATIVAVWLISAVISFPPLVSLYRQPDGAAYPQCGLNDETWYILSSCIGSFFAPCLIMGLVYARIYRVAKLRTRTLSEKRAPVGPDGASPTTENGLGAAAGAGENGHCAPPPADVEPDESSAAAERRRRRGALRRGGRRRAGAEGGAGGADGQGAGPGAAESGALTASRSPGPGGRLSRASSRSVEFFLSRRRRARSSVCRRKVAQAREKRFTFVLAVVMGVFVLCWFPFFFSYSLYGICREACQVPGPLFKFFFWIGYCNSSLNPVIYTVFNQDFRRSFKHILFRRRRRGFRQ

[2] = target: T2, Muscarinic acetylcholine receptor M5 (Homo sapiens, UniProt P08912); format: cell membranes, CHO-K1, Membrane; conditions: cho-k1; note: in other assays of this panel Not Active means under 50% inhibition at 10 µM
T2 sequence (P08912 whole entry): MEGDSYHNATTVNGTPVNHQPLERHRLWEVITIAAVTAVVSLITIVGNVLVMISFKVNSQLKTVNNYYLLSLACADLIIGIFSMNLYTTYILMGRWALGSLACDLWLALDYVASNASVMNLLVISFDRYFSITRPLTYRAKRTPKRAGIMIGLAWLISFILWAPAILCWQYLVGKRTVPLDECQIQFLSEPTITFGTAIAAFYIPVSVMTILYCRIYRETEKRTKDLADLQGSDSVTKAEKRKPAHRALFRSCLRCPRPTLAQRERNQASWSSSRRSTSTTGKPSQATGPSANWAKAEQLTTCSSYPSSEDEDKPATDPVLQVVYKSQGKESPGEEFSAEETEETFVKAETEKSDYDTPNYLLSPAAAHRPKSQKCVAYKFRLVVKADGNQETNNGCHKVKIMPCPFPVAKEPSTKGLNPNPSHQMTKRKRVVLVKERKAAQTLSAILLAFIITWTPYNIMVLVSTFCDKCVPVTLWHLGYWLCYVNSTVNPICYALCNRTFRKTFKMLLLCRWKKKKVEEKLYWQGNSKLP

[3] = target: 5-hydroxytryptamine receptor 4 (Cavia porcellus, UniProt O70528); format: cell membranes, Dunkin-Hartley, Striatum, Membrane; note: in other assays of this panel Not Active means under 50% inhibition at 10 µM
[4] = DRUGMATRIX: Phosphodiesterase PDE3 enzyme inhibition (substrate: [3H]cAMP + cAMP); format: tissue-based, Homo sapiens; conditions: platelet, Not Active = under 50% inhibition at 10 µM
Cannabinoid receptor 1 = Cannabinoid receptor 1 (Homo sapiens, UniProt P21554); format: cell membranes, Chem-1, Membrane; conditions: chem-1; note: in other assays of this panel Not Active means under 50% inhibition at 10 µM
Chain of Cannabinoid receptor 1 (P21554 whole entry): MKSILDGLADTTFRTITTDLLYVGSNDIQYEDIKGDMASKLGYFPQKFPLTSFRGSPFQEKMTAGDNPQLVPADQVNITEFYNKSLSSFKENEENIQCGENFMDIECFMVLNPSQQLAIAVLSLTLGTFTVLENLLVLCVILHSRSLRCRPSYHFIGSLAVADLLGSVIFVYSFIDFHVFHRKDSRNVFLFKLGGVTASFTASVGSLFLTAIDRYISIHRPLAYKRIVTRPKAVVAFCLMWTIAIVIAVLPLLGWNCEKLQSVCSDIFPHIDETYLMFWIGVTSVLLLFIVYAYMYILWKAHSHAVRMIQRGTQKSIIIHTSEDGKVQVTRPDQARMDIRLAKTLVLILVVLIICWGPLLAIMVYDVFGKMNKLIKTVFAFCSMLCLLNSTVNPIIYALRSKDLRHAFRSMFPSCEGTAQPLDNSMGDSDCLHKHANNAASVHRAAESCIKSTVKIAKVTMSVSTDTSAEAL

Chain of 5-hydroxytryptamine receptor 4 (O70528 whole entry): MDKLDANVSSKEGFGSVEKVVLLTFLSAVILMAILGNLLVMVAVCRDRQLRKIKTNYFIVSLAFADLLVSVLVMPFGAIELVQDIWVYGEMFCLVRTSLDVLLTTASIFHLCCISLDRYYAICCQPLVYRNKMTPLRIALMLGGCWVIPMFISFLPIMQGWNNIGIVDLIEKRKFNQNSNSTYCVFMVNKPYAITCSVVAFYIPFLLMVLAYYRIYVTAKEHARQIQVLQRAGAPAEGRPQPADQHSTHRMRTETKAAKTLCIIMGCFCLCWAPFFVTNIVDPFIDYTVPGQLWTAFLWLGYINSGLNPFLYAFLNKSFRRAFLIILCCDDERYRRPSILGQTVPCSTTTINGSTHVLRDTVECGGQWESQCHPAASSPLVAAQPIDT

Compound	IC50 [1]	IC50 [2]	IC50 [3]	IC50 [4]	Ki [4]	IC50 (Cannabinoid receptor 1)	Ki [1]	Ki [2]	Ki [3]	Ki (Cannabinoid receptor 1)	pIC50 ([4]; read-out: IC50)	pIC50 ([1]; read-out: IC50)	pKi ([1]; read-out: Ki)
C[C@@H]1[C@H](O)[C@@H](C)/C=C/C=C/C=C/C=C/C=C/C=C/C=C/[C@H](O[C@@H]2O[C@H](C)[C@@H](O)[C@H](N)[C@@H]2O)C[C@@H]2O[C@](O)(C[C@@H](O)C[C@@H](O)[C@H](O)CC[C@@H](O)C[C@@H](O)CC(=O)O[C@H]1C)C[C@H](O)[C@H]2C(=O)O [AMPHOTERICIN B]	Not Active	Not Active	Not Active	Not Active	Not Active	Not Active	–	–	–	–	–	–	–
Oc1ncnc2[nH]ncc12 [ALLOPURINOL]	Not Active	Not Active	Not Active	Not Active	Not Active	Not Active	–	–	–	–	–	–	–
COc1cc([C@@H]2c3cc4c(cc3[C@H](O)[C@H]3COC(=O)[C@H]23)OCO4)cc(OC)c1OC [PODOFILOX]	Not Active	Not Active	Not Active	Not Active	Not Active	Not Active	–	–	–	–	–	–	–
NC(=O)CN1CCCC1=O	Not Active	Not Active	Not Active	Not Active	Not Active	Not Active	–	–	–	–	–	–	–
POVIDONE	Not Active	Not Active	Not Active	Not Active	Not Active	Not Active	Not Active	Not Active	Not Active	Not Active	–	–	–
Cc1c(N)nc([C@H](CC(N)=O)NC[C@H](N)C(N)=O)nc1C(=O)N[C@H](C(=O)N[C@H](C)[C@@H](O)[C@H](C)C(=O)N[C@H](C(=O)NCCc1nc(-c2nc(C(=O)NCCC[S+](C)C)cs2)cs1)[C@@H](C)O)[C@@H](O[C@@H]1O[C@@H](CO)[C@@H](O)[C@H](O)[C@@H]1O[C@H]1O[C@H](CO)[C@@H](O)[C@H](OC(N)=O)[C@@H]1O)c1c[nH]cn1.[Br-] [BLEOMYCIN A2]	Not Active	Not Active	Not Active	Not Active	Not Active	Not Active	–	–	–	–	–	–	–
CN(Cc1cc(Br)cc(Br)c1N)C1CCCCC1 [BROMHEXINE]	Not Active	Not Active	Not Active	Not Active	Not Active	Not Active	–	–	–	–	–	–	–
Nc1ccc(Cc2ccc(N)cc2)cc1	Not Active	Not Active	Not Active	Not Active	Not Active	Not Active	–	–	–	–	–	–	–
C[C@]12CC[C@@H](O)C[C@@H]1CC[C@@H]1[C@@H]2CC[C@]2(C)C(=O)CC[C@@H]12 [ANDROSTERONE]	Not Active	Not Active	Not Active	Not Active	Not Active	Not Active	–	–	–	–	–	–	–
O=C(O)c1ccccc1 [BENZOIC ACID]	Not Active	Not Active	Not Active	Not Active	Not Active	Not Active	–	–	–	–	–	–	–
CC(=O)Nc1ccc2c(c1)Cc1ccccc1-2 [2-ACETYLAMINOFLUORENE]	Not Active	Not Active	Not Active	Not Active	Not Active	Not Active	–	–	–	–	–	–	–
C[C@H](C(=O)O)c1ccc2oc(-c3ccc(F)cc3)nc2c1 [FLUNOXAPROFEN]	Not Active	Not Active	Not Active	Not Active	Not Active	Not Active	–	–	–	–	–	–	–
C[C@H]1C[C@H]2[C@@H]3CCC4=CC(=O)C=C[C@]4(C)[C@@]3(F)[C@@H](O)C[C@]2(C)[C@@]1(O)C(=O)CO [BETAMETHASONE]	Not Active	Not Active	Not Active	Not Active	Not Active	Not Active	–	–	–	–	–	–	–
CN(CCOc1ccc(C[C@H](Nc2ccccc2C(=O)c2ccccc2)C(=O)O)cc1)c1ccccn1	Not Active	Not Active	Not Active	–	–	Not Active	–	–	–	–	4.71	–	–
NS(=O)(=O)c1cc(C(=O)O)c(NCc2ccco2)cc1Cl [FUROSEMIDE]	Not Active	Not Active	Not Active	Not Active	Not Active	Not Active	–	–	–	–	–	–	–
CCN1CCN(c2cc3c(cc2F)c(=O)c(C(=O)O)cn3C2CC2)CC1 [ENROFLOXACIN]	Not Active	Not Active	Not Active	Not Active	Not Active	Not Active	–	–	–	–	–	–	–

Compound	IC50 [1]	IC50 [2]	IC50 [3]	IC50 [4]	Ki [4]	IC50 (Cannabinoid receptor 1)	Ki [1]	Ki [2]	Ki [3]	Ki (Cannabinoid receptor 1)	pIC50 ([4]; read-out: IC50)	pIC50 ([1]; read-out: IC50)	pKi ([1]; read-out: Ki)
C[N+](C)(C)CCOP(=O)([O-])OC[C@H](O)CO	Not Active	Not Active	Not Active	Not Active	Not Active	Not Active	–	–	–	–	–	–	–
O=C(Nc1ccc(Cl)c(Cl)c1)c1cc(Cl)cc(Cl)c1O [3,3',4',5-TETRACHLOROSALICYLANILIDE]	Not Active	Not Active	Not Active	Not Active	Not Active	Not Active	–	–	–	–	–	–	–
O=C(O)COC(=O)Cc1ccccc1Nc1c(Cl)cccc1Cl [ACECLOFENAC]	Not Active	Not Active	Not Active	Not Active	Not Active	Not Active	–	–	–	–	–	–	–
O=c1[nH]c2ccccc2c2ccccc12	Not Active	Not Active	Not Active	Not Active	Not Active	Not Active	–	–	–	–	–	–	–
C=CCN1CC[C@]23c4c5ccc(O)c4O[C@H]2/C(=N/N=C2\CC[C@@]4(O)[C@H]6Cc7ccc(O)c8c7[C@@]4(CCN6CC=C)[C@H]2O8)CC[C@@]3(O)[C@H]1C5 [NALOXONAZINE]	Not Active	Not Active	Not Active	Not Active	Not Active	Not Active	–	–	–	–	–	–	–
ClC1=C(Cl)[C@]2(Cl)[C@@H]3[C@@H]4C[C@@H]([C@H]5O[C@@H]45)[C@@H]3[C@@]1(Cl)C2(Cl)Cl [DIELDRIN]	Not Active	Not Active	Not Active	Not Active	Not Active	Not Active	–	–	–	–	–	–	–
COPPER(II) OXIDE	Not Active	Not Active	Not Active	Not Active	Not Active	Not Active	Not Active	Not Active	Not Active	Not Active	–	–	–
CCO [ALCOHOL]	Not Active	Not Active	Not Active	Not Active	Not Active	Not Active	–	–	–	–	–	–	–
CC(N)Cc1c[nH]c2ccc(OCc3cccs3)cc12 (stereo not given) [BW-723C86]	Not Active	Not Active	Not Active	Not Active	Not Active	Not Active	–	–	–	–	–	–	–
CCN(CCO)CCCC(C)Nc1ccnc2cc(Cl)ccc12 (stereo not given) [HYDROXYCHLOROQUINE]	Not Active	Not Active	Not Active	Not Active	Not Active	Not Active	–	–	–	–	–	–	–
c1ccc2sc(SSc3nc4ccccc4s3)nc2c1 [BENZOTHIAZYL DISULFIDE]	–	Not Active	Not Active	Not Active	Not Active	Not Active	–	–	–	–	–	5.78	6.62
CC(C)Cc1ccc([C@H](C)C(=O)O)cc1 [DEXIBUPROFEN]	Not Active	Not Active	Not Active	Not Active	Not Active	Not Active	–	–	–	–	–	–	–
Cl.NC[C@H]1CC[C@H](C(=O)Oc2ccc(CCC(=O)O)cc2)CC1 [CETRAXATE HYDROCHLORIDE]	Not Active	Not Active	Not Active	Not Active	Not Active	Not Active	–	–	–	–	–	–	–
Nc1nc(N)c2nc(CNc3ccc(C(=O)N[C@@H](CCC(=O)O)C(=O)O)cc3)cnc2n1 [AMINOPTERIN]	Not Active	Not Active	Not Active	Not Active	Not Active	Not Active	–	–	–	–	–	–	–
NC(=O)NC(=O)Cc1ccccc1 [PHENACEMIDE]	Not Active	Not Active	Not Active	Not Active	Not Active	Not Active	–	–	–	–	–	–	–
C[N+](C)(C)CCOC(N)=O.[Cl-] [CARBACHOL]	Not Active	Not Active	Not Active	Not Active	Not Active	Not Active	–	–	–	–	–	–	–
